Data: patent publication US5789377A (priority 1995, dated 1998)
Where two headings read alike, the source gives them in different places.

Key:
Assay type in all cases: cell-based
RAW cells = test: RAW cell viability by Trypan blue exclusion; conditions: up to 50 μg peptide
E. coli = tested on: E. coli
Method: (§1) The minimum inhibitory concentrations (MIC) of CEME, CEMA and melittin were determined for a number of different bacteria (Table 2). Briefly, cells were grown overnight at 37° C. in LB-S (Luria broth without any salt supplement) and diluted one in 10,000 in the same medium to give concentrations of about 10^4 to 10^5 CFU/ml. The broth dilutions were set up in a 96 well microtiter plate by putting 200 μl of LB-S containing the initial concentration of antibiotic or compound in column 1 and 100 μl of the same medium in columns 2-12. The compounds were diluted by taking 100 μl of broth from column 1 and mixing it with column 2, resulting in a one in two dilution. This was continued to column 10. Finally, 10 μl of bacteria were pipetted into columns 1-11, and the plates incubated overnight at 37° C. The next day the plates were scored for growth in the wells, and the MIC determined.

P. aeruginosa = conditions: fragments of CEMA
Method: as §1

S. aureus = conditions: fragments of CEMA
Method: as §1

Candida albicans = test: MIC broth dilution; conditions: fragments of CEMA
Method: as §1
Consequently, although CEMA is an effective antimicrobial agent, the individual fragments have no antimicrobial (or anti-fungal) activity.

E. coli strain DC2 = test: gel overlay antibacterial activity assay; conditions: gel overlaid with ≈10^5 E. coli strain DC2, overnight at 37° C.
Method: A sample of the partially purified CEME protein was electrophoresed on a 15% acid-urea gel, which separates proteins based on charge and mass (Panyim and Chalkey, Arch. Biochem. Biophys., 130:337, 1969). The pH of the buffer is acidic (=pH 5.0) and the polarity is reversed such that proteins migrate to the cathode. Therefore, the small cationic peptides run relatively quickly through the gel and thus can be easily identified. Antibacterial activity was tested as previously described (Hultmark, Eur. J. Biochem., 106:7, 1980). The gel was incubated in Mueller Hinton broth+0.2M NaPO4 pH 7.4 for 1 hr. It was overlaid with 5 mls of the same media containing 0.6% agar and ≈10^5 E. coli strain DC2, and then again with 5 ml of the same media containing only 0.6% agar. […] Melittin is used as a positive control due to its antibacterial activity and similarity in size and PI values.

P. AERUGINOSA H309 [1] = test: lysozyme lysis assay (membrane permeabilization); conditions: 50 μg/ml lysozyme, decrease in OD600, FIG. 5
Method: Membrane permeabilization by polycationic compounds was measured in two different assays. The first assay measured membrane disruption by the ability of lysozyme to reach the periplasm and cause cell lysis. […] The uptake of lysozyme into whole cells due to membrane permeabilization by various compounds was previously described in Hancock, et al., Antimicrobial Agents and Chemo., 19:777, 1981. Overnight cultures of P. aeruginosa H309 or E. cloacae 218R1 grown in LB-S were diluted 1 in 50 in fresh medium and grown to an OD600 =0.5-0.6. The cells were harvested in a Silencer H-103N clinical centrifuge at 1800 g for 10 min, washed once with one volume of assay buffer (5 mM HEPES pH 7.2, 5 mM KCN), and resuspended in the same buffer to an OD600 of 0.5. Assays consisted of 600 μl of cells with 50 μg/ml of chicken egg white lysozyme and varying concentrations of cationic compounds. Cell lysis was measured as a decrease in the OD600 in a Perkin-Elmer dual beam spectrophotometer. Parallel experiments performed without lysozyme enabled the measurement of the lytic activity of the compounds themselves. To test whether or not permeability to lysozyme could be inhibited by divalent cations, various concentrations of MgCl2 were added to the assay after the addition of lysozyme and before the addition of the test compound.

P. AERUGINOSA H309 [2] = test: 1-N-phenylnaphthylamine (NPN) uptake assay; conditions: 10 μM NPN, fluorescence, FIG. 7
Description: (§2) The second assay determined membrane permeability by the ability of 1-N-phenylnaphthylamine (NPN), a small fluorescent probe, to insert itself into the membrane. Normally, very little NPN can penetrate the outer membrane, but in the presence of a membrane permeabilizer it can insert into the hydrophobic membrane resulting in an increase in fluorescence (FIGS. 7 and 8). This N-phenylnaphthylamine uptake assay was previously described by Loh, et al., Antimicrobial Agents and Chemo., 26:546, 1984. Cells were prepared exactly the same as for the lysozyme lysis assay. 1-N-phenylnaphthylamine (NPN) was dissolved in acetone at a concentration of 500 μM. NPN fluorescence was measured in a Perkin-Elmer 650-10S fluorescent spectrophotometer using excitation and emission wavelengths set to 350 nm and 420 nm respectively, with slit widths of 5 nm. The assay was standardized by adding 20 μl of NPN (final concentration of 10 μM) and 10 μl of 0.64 mg/ml of polymyxin B (final concentration of 6.4 μg/ml) into 1 ml of cells, and adjusting the resulting fluorescence to read 90% deflection (90 arbitrary units). Various compounds were tested by adding 10 μl of different concentrations to a cuvette containing 1 ml of cells and 10 μM NPN. Permeabilizing activity was designated as the total fluorescence minus the fluorescence due to NPN alone. Following the fluorescence measurement, the OD600 of the cells was taken to ensure no significant cell lysis had occurred.

E. cloacae = conditions: strain 218R1, β-lactam resistant
Method: as §1

S. typhimurium = tested on: S. typhimurium
Method: as §1

E. cloacae 218R1 = test: 1-N-phenylnaphthylamine (NPN) uptake assay; conditions: 10 μM NPN, fluorescence, FIG. 8
Description: as §2

[3] = strain DC2, Polymyxin sensitive
[4] = strain SC9251, Parent of SC9252
[5] = strain SC9252, Polymyxin resistant
[6] = strain C590, Defensin sensitive

| Compound | opening up the membrane to NPN (P. AERUGINOSA H309 [2]) | MIC (E. cloacae) [µg/mL] | MIC (E. coli; [3]) [µg/mL] | MIC (E. coli; [4]) [µg/mL] | MIC (E. coli; [5]) [µg/mL] | MIC (S. typhimurium; strain C587, Parent of C590) [µg/mL] | MIC (S. typhimurium; [6]) [µg/mL] | other results |
| --- | --- | --- | --- | --- | --- | --- | --- | --- |
| CC[C@H](C)[C@H](NC(=O)CNC(=O)[C@@H](NC(=O)[C@H](CCCCN)NC(=O)[C@H](CCCCN)NC(=O)[C@H](Cc1ccccc1)NC(=O)[C@H](CC(C)C)NC(=O)[C@H](CCCCN)NC(=O)[C@H](Cc1c[nH]c2ccccc12)NC(=O)[C@@H](N)CCCCN)[C@@H](C)CC)C(=O)NCC(=O)N[C@@H](C)C(=O)N[C@H](C(=O)N[C@@H](CC(C)C)C(=O)N[C@@H](CCCCN)C(=O)N[C@H](C(=O)N[C@@H](CC(C)C)C(=O)N[C@H](C(=O)N[C@H](C(=O)NCC(=O)N[C@@H](CC(C)C)C(=O)N1CCC[C@H]1C(=O)N[C@@H](C)C(=O)N[C@@H](CC(C)C)C(=O)N[C@@H](CCCCN)C(=O)N[C@@H](CC(C)C)C(=O)N[C@H](C(=O)N[C@@H](CCCCN)C(=O)O)[C@@H](C)O)[C@@H](C)O)[C@@H](C)O)C(C)C)C(C)C [CEMA] |  |  |  |  |  |  |  | RAW cell viability (RAW cells): no apparent decrease |
| CC[C@H](C)[C@H](NC(=O)CN)C(=O)NCC(=O)N[C@@H](C)C(=O)N[C@H](C(=O)N[C@@H](CC(C)C)C(=O)N[C@@H](CCCCN)C(=O)N[C@H](C(=O)N[C@@H](CC(C)C)C(=O)N[C@H](C(=O)N[C@H](C(=O)NCC(=O)N[C@@H](CC(C)C)C(=O)N1CCC[C@H]1C(=O)N[C@@H](C)C(=O)N[C@@H](CC(C)C)C(=O)N[C@@H](CCCCN)C(=O)N[C@@H](CC(C)C)C(=O)N[C@H](C(=O)N[C@@H](CCCCN)C(=O)O)[C@@H](C)O)[C@@H](C)O)[C@@H](C)O)C(C)C)C(C)C [MA] |  |  |  |  |  |  |  | MIC (E. coli; E. coli, fragments of CEMA): greater than 64 ug/ml; MIC (P. aeruginosa): greater than 64 ug/ml; MIC (S. aureus): greater than 64 ug/ml; MIC (Candida albicans): greater than 64 ug/ml |
| CC[C@H](C)[C@H](NC(=O)CN)C(=O)NCC(=O)N[C@@H](C)C(=O)N[C@H](C(=O)N[C@@H](CC(C)C)C(=O)N[C@@H](CCCCN)C(=O)N[C@H](C(=O)N[C@@H](CC(C)C)C(=O)N[C@H](C(=O)N[C@H](C(=O)NCC(=O)N[C@@H](CC(C)C)C(=O)N1CCC[C@H]1C(=O)N[C@@H](C)C(=O)N[C@@H](CC(C)C)C(=O)N[C@H](C(=O)N[C@@H](CO)C(=O)N[C@@H](Cc1c[nH]c2ccccc12)C(=O)N[C@H](C(=O)N[C@@H](CCCCN)C(=O)N[C@@H](CCCNC(=N)N)C(=O)N[C@@H](CCCCN)C(=O)N[C@@H](CCCNC(=N)N)C(=O)N[C@@H](CCC(N)=O)C(=O)N[C@@H](CCC(N)=O)C(N)=O)[C@@H](C)CC)[C@@H](C)CC)[C@@H](C)O)[C@@H](C)O)C(C)C)C(C)C [MEL, melittin] | less active |  |  |  |  |  |  | zones of clearing on overlaid acid-urea gel (E. coli strain DC2): zones of clearing; permeabilization of outer membrane to lysozyme (P. AERUGINOSA H309 [1]): did not appear to be a good permeabilizer as compared to the other peptides |
| gentamicin [GM] |  | 0.5 | 0.5 | 2 | 4 | 4 | 2 |  |
| polymyxin B [PX] | equally active | 0.5 | 0.06 | 0.06 | 4 | 1 | 0.25 | opening up the membrane to NPN (E. cloacae 218R1): equally active |
